The source of these data is patent publication US12668845B2, “Methods for predicting drug responsiveness in cancer patients” (Allarity Therapeutics Europe ApS, priority 2018, dated 2026).

Molecules are shown by their SMILES.

The test system of one data set is NCI-H209. As to the kind of experiment: Growth inhibition of cell lines treated with 2X-121. The format is cell-based. Conditions: Homo sapiens; cell line NCI-H209, origin SCLC; read-out: Measured growth inhibition IC50.
The test system of another data set is SR. The description is as above. The class given is cell-based. The settings on record: Homo sapiens; cell line SR, origin B cell lymphoma; read-out: Measured growth inhibition IC50.
The test system of another data set is SF-295. Described as above. The format is cell-based. The settings on record: Homo sapiens; cell line SF-295, origin GBM; read-out: Measured growth inhibition IC50.
The next data set has as its system HEC-151. Described as above. Conditions: cell line HEC-151, origin Endometrial; read-out: Measured growth inhibition IC50. The format is cell-based.
A further data set concerns Jeko-1. The description is as above. The format is cell-based. The settings on record: Homo sapiens; cell line Jeko-1, origin MCL; read-out: Measured growth inhibition IC50.
The next data set concerns SNG-II. The data set is described as above. The class given is cell-based. Conditions: cell line SNG-II, origin Endometrial; read-out: Measured growth inhibition IC50.
Another data set addresses P-glycoprotein (Homo sapiens, UniProt P08183). The settings on record: cited from earlier work.
Another data set concerns HCT-116. As to the kind of experiment: Growth inhibition of cell lines treated with 2X-121. The settings on record: Homo sapiens; cell line HCT-116, origin Colon; read-out: Measured growth inhibition IC50. The format is cell-based.
A further data set deals with HCT-15. Described as above. The class given is cell-based. The settings on record: Homo sapiens; cell line HCT-15, origin Colon; read-out: Measured growth inhibition IC50.
For data set [1] the following is noted: in vivo; cited from earlier work.
The subject of another data set is HCC70. As to the kind of experiment: Growth inhibition of cell lines treated with 2X-121. The class given is cell-based. The settings on record: Homo sapiens; cell line HCC70, origin Breast; read-out: Measured growth inhibition IC50.
Another data set concerns NCI-H69. The data set is described as above. Conditions: Homo sapiens; cell line NCI-H69, origin SCLC; read-out: Measured growth inhibition IC50. The format is cell-based.
A further data set deals with MDA-MB-157. The data set is described as above. The class given is cell-based. Conditions: Homo sapiens; cell line MDA-MB-157, origin Breast; read-out: Measured growth inhibition IC50.
The test system of the next data set is T47D. The description is as above. The class given is cell-based. The settings on record: Homo sapiens; cell line T47D, origin Breast; read-out: Measured growth inhibition IC50.
In a further data set the test system is NCI-H82. The data set is described as above. The class given is cell-based. The settings on record: Homo sapiens; cell line NCI-H82, origin SCLC; read-out: Measured growth inhibition IC50.
Another data set relates to KLE. Described as above. The class given is cell-based. Conditions: Homo sapiens; cell line KLE, origin Endometrial; read-out: Measured growth inhibition IC50.
The next data set concerns THP-1. The data set is described as above. The class given is cell-based. Conditions: Homo sapiens; cell line THP-1, origin AML; read-out: Measured growth inhibition IC50.
For a further data set, the system named is Toledo. The description is as above. The format is cell-based. Conditions: Homo sapiens; cell line Toledo, origin DLBCL (GC); read-out: Measured growth inhibition IC50.
A further data set concerns Hs578T. The description is as above. The settings on record: Homo sapiens, Hs-578T; cell line Hs578T, origin Breast; read-out: Measured growth inhibition IC50. The format is cell-based.
A further data set has as its system MDA-MB-453. The data set is described as above. The format is cell-based. Conditions: Homo sapiens; cell line MDA-MB-453, origin Breast; read-out: Measured growth inhibition IC50.
The next data set has as its system RL. The description is as above. The class given is cell-based. The settings on record: Homo sapiens; cell line RL, origin NHL B cell lymphoma; read-out: Measured growth inhibition IC50.
For the next data set, the system named is DB. Described as above. The class given is cell-based. The settings on record: Homo sapiens; cell line DB, origin DLBCL (GC); read-out: Measured growth inhibition IC50.

P-glycoprotein, sequence (P08183 whole entry): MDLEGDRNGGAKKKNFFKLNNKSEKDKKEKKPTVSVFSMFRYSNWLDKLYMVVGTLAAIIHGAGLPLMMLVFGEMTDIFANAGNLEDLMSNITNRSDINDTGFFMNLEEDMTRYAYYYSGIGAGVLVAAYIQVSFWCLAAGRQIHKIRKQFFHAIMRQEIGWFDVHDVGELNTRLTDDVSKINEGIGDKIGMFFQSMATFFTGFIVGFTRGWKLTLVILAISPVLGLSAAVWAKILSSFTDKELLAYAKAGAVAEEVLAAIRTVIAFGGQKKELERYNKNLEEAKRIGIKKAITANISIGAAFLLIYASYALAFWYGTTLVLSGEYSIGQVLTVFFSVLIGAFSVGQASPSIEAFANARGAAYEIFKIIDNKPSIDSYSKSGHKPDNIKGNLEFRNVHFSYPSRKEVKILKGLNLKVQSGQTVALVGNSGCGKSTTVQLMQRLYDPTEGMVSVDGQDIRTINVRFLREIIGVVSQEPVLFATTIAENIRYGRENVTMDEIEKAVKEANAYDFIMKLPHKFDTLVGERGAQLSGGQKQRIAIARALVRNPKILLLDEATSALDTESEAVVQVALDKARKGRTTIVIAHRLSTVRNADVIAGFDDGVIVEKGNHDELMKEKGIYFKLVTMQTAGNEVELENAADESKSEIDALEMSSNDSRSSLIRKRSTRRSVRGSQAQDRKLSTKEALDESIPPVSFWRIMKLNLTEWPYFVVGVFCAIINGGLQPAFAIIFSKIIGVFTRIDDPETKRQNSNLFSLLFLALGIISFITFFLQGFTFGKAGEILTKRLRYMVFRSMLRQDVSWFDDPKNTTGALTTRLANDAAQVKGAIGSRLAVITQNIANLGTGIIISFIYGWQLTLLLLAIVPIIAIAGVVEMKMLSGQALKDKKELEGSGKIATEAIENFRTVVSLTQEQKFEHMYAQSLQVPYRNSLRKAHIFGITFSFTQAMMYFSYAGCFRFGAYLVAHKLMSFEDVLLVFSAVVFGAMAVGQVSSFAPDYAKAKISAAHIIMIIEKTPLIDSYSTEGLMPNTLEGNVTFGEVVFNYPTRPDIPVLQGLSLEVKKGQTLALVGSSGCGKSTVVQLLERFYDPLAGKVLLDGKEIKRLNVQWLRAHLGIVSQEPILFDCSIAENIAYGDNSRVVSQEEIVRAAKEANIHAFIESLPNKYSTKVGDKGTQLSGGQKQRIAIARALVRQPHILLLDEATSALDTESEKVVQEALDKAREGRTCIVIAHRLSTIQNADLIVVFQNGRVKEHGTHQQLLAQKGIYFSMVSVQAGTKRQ

Take `O=c1[nH]nc2c3c(cccc13)N=C(CN1Cc3ccccc3C1)N2` [2X-121, 8-(isoindolin-2-ylmethyl)-2,9-dihydro-3H-pyridazino[3,4,5-de]quinazolin-3-one]: the half-maximal inhibitory concentration (IC50) in the data set on NCI-H209 was found to be 620 nM; in the data set with SR it was 260 nM; in the data set with SF-295 it was 2600 nM; in the data set on HEC-151 it was 1440 nM; with Jeko-1 it was 1900 nM; with SNG-II, 5260 nM. The half-inhibitory concentration (IC50) came out at 1700 nM in the data set with HCT-116; 2200 nM with HCT-15; 9300 nM with HCC70; 1330 nM in the data set with NCI-H69; 6800 nM with MDA-MB-157; 7800 nM in the data set on T47D. Further, the IC50 stood at 470 nM in the data set with NCI-H82; 2590 nM with KLE; 5400 nM with THP-1; 1600 nM in the data set on Toledo; 9600 nM with Hs578T; 6200 nM in the data set with MDA-MB-453. The IC50 worked out at 2500 nM in the data set on RL and 1600 nM in the data set on DB. Further, the “substrate for P-glycoprotein” value on P-glycoprotein is recorded as “not a substrate for P-glycoprotein”. Besides, in [1], the brain penetration entry was “brain penetrable”.

By IC50 is commonly meant the midpoint of a concentration-inhibition curve.
